The test system of one data set is ME-180 tumors. Briefly: Chemoradiotherapy of intradermal ME-180 tumors in mice. It counts as in vivo, athymic Ncr-nu/nu mice. The following applies: with single 8 Gy radiation; conjugate IT 10 mg/kg, cisplatin IP 7 mg/kg. Here is the method:
Chemoradiotherapy of ME-180 Tumors with intratumoral calcium phosphate particle/cisplatin conjugate was performed. Primary tumors were initiated on the right flank in seventy athymic Ncr-nu/nu mice, 5-7 weeks old, by intradermal injections of 2.25×10^6 ME-180 cells, a human cervical cancer line. Six treatment groups were established for the study and included an untreated control, 7 mg/kg intraperitoneal (IP) cisplatin, and intratumoral (IT) calcium phosphate particle/cisplatin conjugate at a dose of 10 mg/kg. These three treatment groups were repeated in combination with a single dose of radiation at 8 Gy (Varian 2100 C), for a total of six treatment groups. Mice were entered into treatment groups once the intradermal ME-180 tumors were 100 mm^3±10% in size. A minimum of 5 mice was placed into each group. The conjugate was injected via an 18-gauge needle directly into the intradermal tumor. Tumor length and width were measured daily and the volume determined (Tumor volume=(width)^2×length×0.4). Mouse weight was also recorded daily as weight loss is an indicator of cisplatin side effects. Statistical analysis, a one-way ANOVA and Newman-Kuels Comparison Test, was applied to the tumor volumes on day 15 after treatment.

Data set [1] concerns A2780cis human ovarian carcinoma cell line. Briefly: In vitro cytotoxicity, CellTiter96 AQueous One proliferation assay (Example 1). It counts as cell-based. The following applies: A2780cis cells; sample added to cells; Example 1 particles. As for the experimental part: In one set of in vitro cytotoxicity activity studies, the cisplatin-resistant A2780cis human ovarian carcinoma cell line was used. A2780cis human ovarian carcinoma cell line (Sigma, 93112517) was cultured according to supplier's descriptions. IC50 values (50% inhibitory concentration) were determined with the CellTiter96® AQueous One (Promega) colorimetric proliferation assay. The CellTiter96® AQueous One (Promega) colorimetric proliferation assay was used to determine the IC50 value (50% inhibitory concentration) evaluated from 12 two-fold dilutions of: (a) cisplatin (200 μg cisplatin /mL) in 0.9% saline (free active agent), (b) 1.5 mg of conjugates in 1.75 ml PBS, (c) 1.5 mg of hydroxyapatite in 1.75 ml of cisplatin solution. Control wells containing the hydroxyapatite only were used since the hydroxyapatite interferes with the CellTiter96 assay. Absorbance values from the hydroxyapatite only were subtracted from the conjugate data in order to determine the IC50 values. The cytotoxicity assay was conducted as follows: twenty-four hours after seeding 2000 A2780cis cells in […] of media on 96 well plates, […] PBS, or PBS with drug or conjugates was added to the wells.

A short description of data set [2]: Lymph node accumulation after footpad injection (Pt by graphite furnace AAS). It counts as in vivo, BALB/c mice. The following applies: 20 μl footpad injection; nodes at 30 min, 1, 4, 7 days. Here is the method: Lymph node accumulation studies were conducted using nine BALB/c mice, 5-7 weeks old injected with 20 μl of calcium phosphate particle/cisplatin conjugate (40 mg/ml) in both rear footpads. Six control mice received 20 μl footpad injections of cisplatin solution only. Draining lymph nodes, as determined by lymphazurin injections (popliteal, inguinal, and lumbar) were collected at 30 min, 1 day, 4 day and 7 days and analyzed for Pt content by graphite furnace atomic absorption spectroscopy. Use of calcium phosphate particle/cisplatin conjugate leads to sustained elevated levels of cisplatin in the draining nodes.

Data set [3] has as its system A2780cis human ovarian carcinoma cell line. Description: In vitro cytotoxicity, CellTiter96 AQueous One proliferation assay (Example 2). In kind it is cell-based. The note with it: two days exposure, conjugate loading 112 μg/mg, listed as free active agent. As for the experimental part: For in vitro cytotoxicity activity studies, the cisplatin-resistant cell line was used: A2780cis human ovarian carcinoma cell line (Sigma, 93112517) and cultured according to supplier's descriptions. Briefly, cells were cultured in RPMI1640 medium, supplemented with 2 mM Glutamine and 10% Fetal Bovine Serum (FBS) in a humid atmosphere at 37° C. and 5% CO2. Cells were supplemented with 1 μm cisplatin to the culture media every 2-3 passages, post-attachment. […] Three days were necessary to achieve a cisplatin concentration high enough to obtain an IC50 value. […] To confirm that the particle conjugates were diluted evenly across the wells, measurements of the total Pt concentration in all the wells of the active agent master plate were made by AAS after dissolving the conjugate solutions in dilute HCl. […] Absorbance values were converted to IC50 values using the four parameter logistic equation: Y=(Amax-Amin)/1+(x/IC50)^n+Amin Eq. 2 where Y=observed absorbance • Amax=absorbance of control cells • Amin=absorbance of cells in presence of highest agent concentration • x=active agent concentration (μg/ml) • n=slope of curve Samples were analyzed for statistically significant differences using the Student's T-test (P<0.05).

The values that follow come from patent publication US20110318422A1, “TARGETED ACTIVE AGENT DELIVERY SYSTEM BASED ON CALCIUM PHOSPHATE NANOPARTICLES” (priority 2007, published 2011).

Molecules are shown by their SMILES. Values joined by “and” are separate entries in the source; they are usually repeats but may differ in a detail not shown here. Equal entries are not always repeated.

Take `N.N.[Cl][Pt][Cl]` [cisplatin]: in the data set on ME-180 tumors, the tumors completely regressed result is on record as “⅙”. In addition, in data set [1], the “IC50 (50% inhibitory concentration)” value worked out at 6.07 ± 0.226 µg/mL. In addition, in data set [2], the “duration of cisplatin levels in the draining popliteal node” value was “barely detected after one day”. The “IC50, direct addition study” value in data set [3] was 6.297 ± 0.43 µg/mL and 6.3 µg/mL.
